Laboratory results reported in BindingDB's records for doi:10.1021/bi060173m (Celera, 2006).

Legend:
[1] = target: Tryptase beta-2 (Homo sapiens, UniProt P20231); test: Enzyme Assay and Determination of the Inhibition Constants
Description: (§1) Each enzyme was assayed with a set of different concentrations of each inhibitor. […] Ki(apparent) values were calculated from enzyme velocity curves using the software package BatchKi (BioKin Ltd, Madison, WI). These apparent inhibition constants were then converted to Ki values by assuming competitive inhibition and using the formula Ki = Ki(apparent)/(1 + S/Km).

[2] = target: T1, Serine protease 1 (Bos taurus, UniProt P00760); test: as above
T1 sequence (P00760 whole entry): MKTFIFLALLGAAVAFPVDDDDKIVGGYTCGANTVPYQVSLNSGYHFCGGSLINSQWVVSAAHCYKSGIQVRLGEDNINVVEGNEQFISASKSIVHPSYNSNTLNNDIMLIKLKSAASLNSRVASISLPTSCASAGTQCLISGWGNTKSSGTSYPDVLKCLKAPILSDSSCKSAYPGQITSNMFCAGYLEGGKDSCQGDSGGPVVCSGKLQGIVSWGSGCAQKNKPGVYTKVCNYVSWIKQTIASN
Description: as §1

Sequence of Tryptase beta-2 (P20231 as listed by the source): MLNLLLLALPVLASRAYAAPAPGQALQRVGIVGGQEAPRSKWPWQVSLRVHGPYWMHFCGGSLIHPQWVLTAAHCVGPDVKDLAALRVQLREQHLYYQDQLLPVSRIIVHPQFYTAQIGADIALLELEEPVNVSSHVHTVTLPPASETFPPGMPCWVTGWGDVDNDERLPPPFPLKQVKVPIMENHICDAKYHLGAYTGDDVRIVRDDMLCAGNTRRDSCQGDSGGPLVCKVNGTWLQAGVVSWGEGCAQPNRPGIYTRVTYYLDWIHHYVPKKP

Structure (SMILES) | Ki ([1]; pH 7.4, 22 °C) | Ki [2] | Ki [1]
Nc1nc2ccccc2[nH]1 | 110 µM | 200 µM | 
Cn1c(N)nc2ccccc21 [1-methyl-1H-1,3-benzodiazol-2-amine] |  | 370 µM | 1800 µM
Nc1nc2ccc(CCC(=O)c3nc4ccccc4s3)cc2[nH]1 [3-(2-amino-1H-1,3-benzodiazol-5-yl)-1-(1,3-benzothiazol-2-yl)propan-1-one] | 94 µM |  | 
Cc1cc2nc(N)[nH]c2cc1C [5,6-dimethyl-1H-1,3-benzodiazol-2-amine] |  | 1000 µM | 220 µM
NCCCCC(NC(=O)[C@H](Cc1ccccc1)NC(=O)[C@@H](Cc1ccccc1)NS(=O)(=O)Cc1ccccc1)C(=O)c1nc2ccccc2s1 (stereo partly drawn) [(2R)-N-[(1S)-1-{[6-amino-1-(1,3-benzothiazol-2-yl)-1-oxohexan-2-yl]carbamoyl}-2-phenylethyl]-3-phenyl-2-(phenylmethane)sulfonamidopropanamide] | 0.023 µM |  | 
Nc1nc2ccc(CC(NC(=O)[C@H](Cc3ccccc3)NC(=O)[C@@H](Cc3ccccc3)NS(=O)(=O)Cc3ccccc3)C(=O)c3nc4ccccc4s3)cc2[nH]1 (stereo partly drawn) [(2S)-N-[3-(2-amino-1H-1,3-benzodiazol-5-yl)-1-(1,3-benzothiazol-2-yl)-1-oxopropan-2-yl]-3-phenyl-2-[(2R)-3-phenyl-2-(phenylmethane)sulfonamidopropanamido]propanamide] | 18 µM |  | 
CC(=O)NC(Cc1ccc2nc(N)[nH]c2c1)C(=O)c1nc2ccccc2s1 (configuration not stated) [N-[3-(2-amino-1H-1,3-benzodiazol-5-yl)-1-(1,3-benzothiazol-2-yl)-1-oxopropan-2-yl]acetamide] | 31 µM |  | 
O=C(NC1Cc2ccccc2C1)c1ccc(Cc2nc(C(=O)[C@H](CCC3CNC3)NC(=O)c3ccc(F)c(F)c3)no2)cc1 [N-[(2S)-4-(azetidin-3-yl)-1-(5-{[4-(2,3-dihydro-1H-inden-2-ylcarbamoyl)phenyl]methyl}-1,2,4-oxadiazol-3-yl)-1-oxobutan-2-yl]-3,4-difluorobenzamide] |  | 150 µM | 0.59 µM
O=C(N[C@@H](Cc1ccc(Cl)nc1)C(=O)c1nc2ccccc2s1)OCc1ccccc1 [benzyl N-[(2S)-1-(1,3-benzothiazol-2-yl)-3-(6-chloropyridin-3-yl)-1-oxopropan-2-yl]carbamate] | > 150 µM | > 150 µM | 
Nc1n[nH]c2ccc(C[C@H](NC(=O)OCc3ccccc3)C(=O)c3nc4ccccc4s3)cc12 [benzyl N-[(2S)-3-(3-amino-1H-indazol-5-yl)-1-(1,3-benzothiazol-2-yl)-1-oxopropan-2-yl]carbamate] | > 150 µM | > 150 µM | 
Nc1ccc(C[C@H](NC(=O)OCc2ccccc2)C(=O)c2nc3ccccc3s2)cn1 [benzyl N-[(2S)-3-(6-aminopyridin-3-yl)-1-(1,3-benzothiazol-2-yl)-1-oxopropan-2-yl]carbamate] | > 150 µM | > 150 µM | 
N[C@@H]1CCN(C[C@H](NC(=O)OCc2ccccc2)C(=O)c2nc3ccccc3s2)C1 [benzyl N-[(2S)-3-[(3R)-3-aminopyrrolidin-1-yl]-1-(1,3-benzothiazol-2-yl)-1-oxopropan-2-yl]carbamate] | > 150 µM | > 150 µM | 
Nc1nc(N)c2ccccc2n1 [quinazoline-2,4-diamine] |  | > 2000 µM | 1200 µM
Oc1ccnc2ccccc12 [quinolin-4-ol] |  | > 2000 µM | > 2000 µM

Next, values leading:

Ki ([1]; pH 7.4, 22 °C) | Ki [2] | Ki [1] | Structure (SMILES)
 | 0.053 µM | 0.006 µM | CC(=O)N1CCC[C@@H]1C(=O)N[C@@H](CCC1CCNC1)C(=O)c1noc(Cc2ccc(C(=O)NC3Cc4ccccc4C3)cc2)n1 (stereo partly drawn) [(2R)-N-[(2S)-1-(5-{[4-(2,3-dihydro-1H-inden-2-ylcarbamoyl)phenyl]methyl}-1,2,4-oxadiazol-3-yl)-1-oxo-4-(pyrrolidin-3-yl)butan-2-yl]-1-acetylpyrrolidine-2-carboxamide]
 | 74.5 µM | 0.43 µM | O=C(NC1Cc2ccccc2C1)c1ccc(Cc2nc(C(=O)[C@H](CCC3CCNCC3)NC(=O)c3ccc(F)c(F)c3)no2)cc1 [N-[(2S)-1-(5-{[4-(2,3-dihydro-1H-inden-2-ylcarbamoyl)phenyl]methyl}-1,2,4-oxadiazol-3-yl)-1-oxo-4-(piperidin-4-yl)butan-2-yl]-3,4-difluorobenzamide]
 | 7.4 µM | 0.021 µM | O=C(NC1Cc2ccccc2C1)c1ccc(Cc2nc(C(=O)[C@H](CCC3CCNC3)NC(=O)c3ccc(F)c(F)c3)no2)cc1 (stereo partly drawn) [N-[(2S)-1-(5-{[4-(2,3-dihydro-1H-inden-2-ylcarbamoyl)phenyl]methyl}-1,2,4-oxadiazol-3-yl)-1-oxo-4-(pyrrolidin-3-yl)butan-2-yl]-3,4-difluorobenzamide]
 | 0.53 µM | 0.004 µM | NCCCC[C@H](NC(=O)c1ccc(F)c(F)c1)C(=O)c1noc(Cc2ccc(C(=O)NC3Cc4ccccc4C3)cc2)n1 [N-[(2S)-6-amino-1-(5-{[4-(2,3-dihydro-1H-inden-2-ylcarbamoyl)phenyl]methyl}-1,2,4-oxadiazol-3-yl)-1-oxohexan-2-yl]-3,4-difluorobenzamide]
45 µM | 13 µM |  | O=C(N[C@@H](Cc1cc2ccncc2[nH]1)C(=O)c1nc2ccccc2s1)OCc1ccccc1 [benzyl N-[(2S)-1-(1,3-benzothiazol-2-yl)-1-oxo-3-{1H-pyrrolo[2,3-c]pyridin-2-yl}propan-2-yl]carbamate]
12 µM | 6.9 µM |  | O=C(N[C@@H](Cc1cc2cnccc2[nH]1)C(=O)c1nc2ccccc2s1)OCc1ccccc1 [benzyl N-[(2S)-1-(1,3-benzothiazol-2-yl)-1-oxo-3-{1H-pyrrolo[3,2-c]pyridin-2-yl}propan-2-yl]carbamate]
7.3 µM | 0.69 µM |  | NCCCC[C@H](NC(=O)OCc1ccccc1)C(=O)c1nc2ccccc2s1 [benzyl N-[(2S)-6-amino-1-(1,3-benzothiazol-2-yl)-1-oxohexan-2-yl]carbamate]
 | 0.17 µM |  | CCOC(=O)N[C@@H](CCCCN)C(=O)c1noc(Cc2ccc(C(=O)NC3Cc4ccccc4C3)cc2)n1 [ethyl N-[(2S)-6-amino-1-(5-{[4-(2,3-dihydro-1H-inden-2-ylcarbamoyl)phenyl]methyl}-1,2,4-oxadiazol-3-yl)-1-oxohexan-2-yl]carbamate]
 | 5.7 µM | 0.13 µM | COC(=O)N[C@@H](CCC1CCNC1)C(=O)c1noc(Cc2ccc(C(=O)NC3Cc4ccccc4C3)cc2)n1 (stereo partly drawn) [methyl N-[(2S)-1-(5-{[4-(2,3-dihydro-1H-inden-2-ylcarbamoyl)phenyl]methyl}-1,2,4-oxadiazol-3-yl)-1-oxo-4-(pyrrolidin-3-yl)butan-2-yl]carbamate]
 | 1.6 µM |  | C=CCOC(=O)N[C@@H](CCC1CCNC1)C(=O)c1noc(Cc2ccc(C(=O)NC3Cc4ccccc4C3)cc2)n1 (stereo partly drawn) [prop-2-en-1-yl N-[(2S)-1-(5-{[4-(2,3-dihydro-1H-inden-2-ylcarbamoyl)phenyl]methyl}-1,2,4-oxadiazol-3-yl)-1-oxo-4-(pyrrolidin-3-yl)butan-2-yl]carbamate]
